Data: patent publication US20240174618A1, “SUBSTITUTED (2-HETEROARYLOXYPHENYL)SULFONATES, SALTS THEREOF AND THEIR USE AS HERBICIDAL AGENTS” (Bayer Aktiengesellschaft, priority 2021, published 2024)

Legend:
Assay type in all cases: in vivo
[1] = test system: Setaria viridis (SETVI); test: A. Herbicidal pre-emergence efficacy, SETVI
Procedure, shortened: (§1)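 Pre-emergence soil-surface spray in sandy loam pots, WP/EC in water plus 0.5% additive, 600 L/ha. Visual % damage rating after about 3 weeks in greenhouse vs. untreated; 0% = control-like, 100% = dead plants. Rates up to 1280 g/ha.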

[2] = test system: Stellaria media (STEME); test: A. Herbicidal pre-emergence efficacy, STEME
Procedure, shortened: as §1

[3] = test system: Veronica persica (VERPE); test: A. Herbicidal pre-emergence efficacy, VERPE
Procedure, shortened: as §1

[4] = test system: Veronica persica (VERPE); test: B. Herbicidal post-emergence efficacy, VERPE
Procedure, shortened: (§2)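 Post-emergence foliar spray, at application rates of 1280 g/ha or less, on one-leaf-stage plants 2–3 weeks post-sowing, using aqueous WP or EC suspensions with 0.5% additive at 600 L/ha. Visual percent efficacy relative to untreated plants scored roughly 3 weeks later in the greenhouse.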

[5] = test system: Poa annua (POAAN); test: A. Herbicidal pre-emergence efficacy, POAAN
Procedure, shortened: as §1

[6] = test system: Digitaria sanguinalis (DIGSA); test: A. Herbicidal pre-emergence efficacy, DIGSA; conditions: scored visually after about 3 weeks vs untreated controls
Procedure, shortened: as §1

[7] = test system: Echinochloa crus-galli (ECHCG); test: A. Herbicidal pre-emergence efficacy, ECHCG; conditions: 1280 g/ha; scored visually after about 3 weeks vs untreated controls
Procedure, shortened: as §1

[8] = test system: Digitaria sanguinalis (DIGSA); test: B. Herbicidal post-emergence efficacy, DIGSA; conditions: 1280 g/ha, rated visually after about 3 weeks
Method: Seeds of mono- and dicotyledonous weed plants were placed in plastic pots in sandy loam soil (doubly sown with in each case one species of mono- or dicotyledonous weed plants per pot), covered with soil and cultivated in a greenhouse under controlled growth conditions. 2 to 3 weeks after sowing, the test plants were treated at the one-leaf stage. The compounds of the invention, formulated in the form of wettable powders (WP) or as emulsion concentrates (EC), were applied onto the green parts of the plants as aqueous suspension or emulsion with addition of 0.5% additive at a water application rate of 600 liters per hectare (converted). After the test plants had been kept in the greenhouse under optimum growth conditions for about 3 weeks, the activity of the preparations was rated visually in comparison to untreated controls.
For example, • 100% efficacy=plants have died, • 0% efficacy=like untreated control plants
Tables B1a to B12c below show the effects of selected inventive compounds of the general formula (I) according to table 1 on various harmful plants at an application rate corresponding to 1280 g/ha or less, which were obtained by the experimental procedure mentioned above.

[9] = test system: Abutilon theophrasti (ABUTH); test: B. Herbicidal post-emergence efficacy, ABUTH; conditions: rated visually after about 3 weeks
Procedure, shortened: as §2

[10] = test system: Poa annua (POAAN); test: B. Herbicidal post-emergence efficacy, POAAN
Procedure, shortened: as §2

[11] = test system: Echinochloa crus-galli (ECHCG); test: B. Herbicidal post-emergence efficacy, ECHCG; conditions: 1280 g/ha, rated visually after about 3 weeks
Procedure, shortened: as §2

[12] = test system: Kochia scoparia (KCHSC); test: A. Herbicidal pre-emergence efficacy, KCHSC; conditions: pre-emergence
Procedure, shortened: as §1

[13] = test system: Amaranthus retroflexus (AMARE); test: B. Herbicidal post-emergence efficacy, AMARE
Procedure, shortened: as §2

[14] = test system: Kochia scoparia (KCHSC); test: B. Herbicidal post-emergence efficacy, KCHSC; conditions: for Post-emergence efficacy against KCHSC in %: rated visually after about 3 weeks; for Post-emergence efficacy against KCHSC: 1280 g/ha
Procedure, shortened: as §2

[15] = test system: Stellaria media (STEME); test: B. Herbicidal post-emergence efficacy, STEME
Procedure, shortened: as §2

[16] = test system: Amaranthus retroflexus (AMARE); test: A. Herbicidal pre-emergence efficacy, AMARE
Procedure, shortened: as §1

[17] = test system: Abutilon theophrasti (ABUTH); test: A. Herbicidal pre-emergence efficacy, ABUTH; conditions: 1280 g/ha; scored visually after about 3 weeks vs untreated controls
Procedure, shortened: as §1

Structure (SMILES) | Pre-emergence efficacy against SETVI ([1]; dosage 320 g/ha) [%] | Pre-emergence efficacy against SETVI ([1]; dosage 1280 g/ha) [%] | Pre-emergence efficacy against STEME ([2]; dosage 1280 g/ha) [%] | Pre-emergence efficacy against VERPE in % ([3]; 1280 g/ha) [%] | Post-emergence efficacy against VERPE ([4]; 320 g/ha) [%] | Post-emergence efficacy against VERPE ([4]; 1280 g/ha) [%] | Pre-emergence efficacy against POAAN ([5]; dosage 320 g/ha) [%] | Pre-emergence efficacy against POAAN ([5]; dosage 1280 g/ha) [%] | Pre-emergence efficacy against DIGSA ([6]; 1280 g/ha) [%] | Pre-emergence efficacy against ECHCG [7] [%] | Post-emergence efficacy against DIGSA in % [8] [%] | Post-emergence efficacy against ABUTH in % ([9]; 1280 g/ha) [%] | Post-emergence efficacy against ECHCG in % [11] [%] | Pre-emergence efficacy against KCHSC ([12]; dosage 1280 g/ha) [%] | Post-emergence efficacy against AMARE ([13]; 320 g/ha) [%] | Post-emergence efficacy against AMARE ([13]; 1280 g/ha) [%] | Post-emergence efficacy against KCHSC in % ([14]; 320 g/ha) [%] | Post-emergence efficacy against KCHSC [14] [%] | Post-emergence efficacy against STEME ([15]; 1280 g/ha) [%] | Pre-emergence efficacy against AMARE in % ([16]; 320 g/ha) [%] | further results
O=S(=O)(CC1CC(F)(F)C1)Oc1c(Br)cccc1Oc1ncc(Cl)cn1 [Example I-75] | 90 | 100 | 100 | 100 | 100 | 100 | 100 | 100 | 100 | 100 | 90 | 100 | 90 | 100 | 100 | 100 | 100 | 100 | 100 | 90 | Pre-emergence efficacy against STEME ([2]; dosage 320 g/ha): 100%; Pre-emergence efficacy against VERPE in % ([3]; 320 g/ha): 90%; Post-emergence efficacy against VERPE ([4]; 80 g/ha): 100%; Pre-emergence efficacy against DIGSA ([6]; 320 g/ha): 90%; Post-emergence efficacy against ABUTH in % ([9]; 80 g/ha): 90%; Post-emergence efficacy against ABUTH in % ([9]; 320 g/ha): 90%; Post-emergence efficacy against POAAN ([10]; 320 g/ha): 90%; Post-emergence efficacy against POAAN ([10]; 1280 g/ha): 90%; Pre-emergence efficacy against KCHSC ([12]; dosage 320 g/ha): 90%; Post-emergence efficacy against AMARE ([13]; 80 g/ha): 100%; Post-emergence efficacy against KCHSC in % ([14]; 80 g/ha): 90%; Post-emergence efficacy against STEME ([15]; 320 g/ha): 100%; Pre-emergence efficacy against AMARE in % ([16]; 80 g/ha): 90%; Pre-emergence efficacy against AMARE in % ([16]; 1280 g/ha): 100%; Pre-emergence efficacy against ABUTH [17]: 100%
O=S(=O)(CCCC(F)(F)F)Oc1ccccc1Oc1ccc(Cl)cn1 [Example I-26] | 90 | 100 | 90 | 100 | 90 | 90 | 90 | 100 | 100 | 90 | 90 | 90 | 90 | 90 | 90 | 90 | 90 | 90 | 90 | 90 | Pre-emergence efficacy against AMARE in % ([16]; 1280 g/ha): 100%
